≈ marks a conversion by molar mass, not a printed value.
What was measured:
[1] = system: Staphylococcus epidermidis ATCC 12228; assay: Determination of MIC and MBC, Staphylococcus epidermidis; assay type: cell-based; settings: for MBC: ATCC12228; for MIC: ATCC12228, read-out: MIC
Description: (§1) A series of test tubes was prepared containing the culture broth inoculated with the test micro-organism and the substance to be tested was introduced at decreasing scalar concentrations. […] The test tubes in which the microbial population developed were then determined by observing visually the turbidity that is indicative of growth. Test tubes in which the substance is present at a sufficient concentration to inhibit growth remain clear. When the nature itself of the sample prevents visual reading or if it is wished to determine whether the lack of development is due to a microbiostatic or microbicidal action, transfers are made to appropriate agar media for confirmation. The concentration of sample at which growth of the micro-organisms is inhibited is considered to be the Minimum Inhibitory Concentration (MIC), while that at which viable micro-organisms are no longer present is considered to be the Minimum Bactericidal Concentration (MBC) The antibacterial activity of these substances against Staphylococcus aureus acnes ATCC 25923 and Staphylococcus epidermidis ATCC 12228 was tested according to the above-described method.

[2] = system: Staphylococcus aureus ATCC 25923; assay: Determination of MIC and MBC, Staphylococcus aureus; assay type: cell-based; settings: for MBC: ATCC25923; for MIC: ATCC25923, read-out: MIC
Description: as §1

[3] = system: Propionibacterium acnes ATCC 11827; settings: common knowledge; cited from earlier work
[4] = system: Propionibacterium acnes ATCC 11827; assay: Determination of MIC and MBC, P. acnes; assay type: cell-based; settings: Cutibacterium acnes, ATCC11827; Propionibacterium acnes ATCC 11827, 2.6×10^4 cells per milliliter
Description: as §1, with “(MBC) In a further set of experiments we tested the” for “(MBC) The”, “of Salix alba extract and 1,2-decanediol, a substance which is known to show antibacterial activity” for “of these substances”, “against P. acnes, alone” for “against Staphylococcus aureus acnes ATCC 25923”, “and in combination” for “and Staphylococcus epidermidis ATCC 12228 was tested”, “method. The microbial strain used was Propionibacterium acnes ATCC 11827 titrated at a concentration of 2.6×10^4 cells per milliliter of medium.” for “method.”

IL-6 = assay: Anti-inflammatory activity: LPS-induced IL-6 release in HaCat keratinocytes (ELISA), as headed in Table 3; assay type: cell-based, human; settings: HaCat + LPS 10 ng/ml; CTR− is 0, CTR+ is 100%; WMAL 0.4%, SMAL 0.02%
IL1alpha = assay: Anti-inflammatory activity: LPS-induced IL1alpha release in HaCat keratinocytes (ELISA); assay type: cell-based, human
Description: (§2) The aim of the test was the evaluation of the anti-inflammatory activity of Salix alba extract, 1,2-decanediol and their combination by means of the study of TNFalpha, IL1alpha, IL8 synthesis modulation in a biological experimental model (keratinocyte cell culture HaCat).
(§3) In order to stimulate the inflammatory process in our experimental model, lipopolysaccharides (LPS) were selected. LPS are pro-inflammatory mediators secreted by bacteria, e.g. by P. acnes.
(§4) 1,2-decanediol (SMAL) was emulsified with corn oil (37° C.) in mechanical agitation and addition of culture medium, starting from the following ratio: 0.05 g emulsified with 100 μl corn oil in a final volume of culture medium of 1 ml (37° C.).
(§5) Salix alba extract (WMAL) was direct diluted in culture medium, starting from the following ratio: 0.05 g in 1 ml (37° C.); subsequent dilutions in culture medium (37° C.). […]
(§6) At the end of the monitored experimental period, cytokine levels were measured by means of ELISA assay. […]
(§7) Commercial ELISA kits were used for the determination of cytokine quantity.
(§8) The quantitative determination uses a calibration curve made-up of standard known and growing concentrations of standard cytokine. […]
(§9) In order to compare the two different work sessions, the obtained data were normalized in a 0-100% scale, in which CTR− is 0 and CTR+ is 100%; all the other data were calculated in this interval.

TNFalpha = assay: Anti-inflammatory activity: LPS-induced TNFalpha release in HaCat keratinocytes (ELISA); assay type: cell-based, human
Description: as §2, §3, §4, §5, §6, §7, §8, §9

IL8 = assay: Anti-inflammatory activity: LPS-induced IL8 release in HaCat keratinocytes (ELISA); assay type: cell-based, human
Description: as §2, §3, §4, §5, §6, §7, §8, §9

[5] = HaCat + LPS 10 ng/ml, CTR− is 0, CTR+ is 100%, WMAL 0.4%, SMAL 0.02%

Row | SMILES | MIC [1] [µg/mL] | MIC [2] [µg/mL] | MIC [4] [µg/mL] | MBC [1] [µg/mL] | MBC [2] [µg/mL] | antibacterial activity against P. acnes, as known (in words) [3] | MBC [4] [µg/mL] | other results
1 | C=C[C@@](C)(/C=C/c1ccc(O)cc1)CCC=C(C)C [Bakuchiol] | 6.25 (≈ 24.4 µM) | 6.25 (≈ 24.4 µM) |  | 100 (≈ 390 µM) | 100 (≈ 390 µM) |  |  | 
2 | CCCCCCCCC(O)CO (stereo not shown) [1,2-decanediol] |  |  | 620 |  |  | effective | 1250 | IL-6, normalized data 0-100% (IL-6): 61.69%; effect on LPS-induced release of IL1alpha (in words) (IL1alpha): significantly reduce; effect on LPS-induced release of TNFalpha (in words) (TNFalpha; HaCat + LPS): significantly reduce; TNF-ALPHA, normalized data 0-100% (TNFalpha; [5]): 18.45%; effect on LPS-induced release of IL8 (in words) (IL8; HaCat + LPS): significantly reduce; IL-8, normalized data 0-100% (IL8; [5]): 34.56%

Now from value to compound, other results behind:

Row | MIC [1] [µg/mL] | MIC [2] [µg/mL] | MIC [4] [µg/mL] | SMILES | MBC [1] [µg/mL] | MBC [2] [µg/mL] | antibacterial activity against P. acnes, as known (in words) [3] | MBC [4] [µg/mL] | other results
3 |  |  | 480 | O=C(OOC(=O)c1ccccc1)c1ccccc1 [benzoyl peroxide] |  |  | strong antibacterial agent | 480 | 
4 | 500 (≈ 2500 µM) |  |  | CCCCCCCCCCCC(=O)O [Lauric Acid, Lauric acid] | 1000 (≈ 4990 µM) |  |  |  | 
5 | 250 (≈ 1100 µM) | 1000 (≈ 4380 µM) |  | Oc1ccc(C=Cc2cc(O)cc(O)c2)cc1 [Resveratrol] | > 100000 | > 100000 |  |  | 
